The series is described as follows: Encapsulation rate of β-CD-MOF for active substances. To be noted: carrier β-CD-MOF; loaded by impregnation, Examples 1-5. It is filed as physicochemical.
On to `Cc1coc2c1C(=O)C(=O)c1c-2ccc2c1CCCC2(C)C` [Tanshinone IIA, tanshinone IIA], for which the Encapsulation rate is listed as 76.40 ± 0.67%.

The molecule `COc1cc2c(=O)c(-c3ccc(O)cc3)coc2cc1O` [Glycitein, glycitein] came in with an Encapsulation rate of 76.34 ± 0.23%.

As for `Oc1ccc(C=Cc2cc(O)cc(O)c2)cc1` [Resveratrol, resveratrol], the Encapsulation rate stood at 82.19 ± 0.35%.

In turn, `O=C/C=C/c1ccccc1` [Cinnamic aldehyde, cinnamic aldehyde] came in with an Encapsulation rate of 79.68 ± 0.28%.

As to `O=C1C[C@@H](c2ccc(O)cc2)Oc2cc(O)cc(O)c21` [Naringenin, naringenin], the Encapsulation rate worked out at 70.23 ± 0.15%.

These data come from patent US11744903B2, “Method for preparing cyclodextrin metal organic framework (CD-MOF) stable in aqueous phase” (Qilu University of Technology, priority 2022, dated 2023).
